In patent publication US20030199692A1, “Propanoic acid derivatives that inhibit the binding of integrins to their receptors” (priority 1999, published 2003):

biological target: T1, α4β1 integrin (Homo sapiens, UniProt P05556+P13612); test: Inhibition of adhesion of calcein AM-labeled Ramos cells to CS1 (fibronectin) peptide-conjugated ovalbumin; type: cell-based; settings: Table 4; Ramos cell adhesion to CS1-conjugated ovalbumin, 30 minutes at 37° C.
T1 construct: endogenous in cells; host or cells: Ramos cells
Summary of the method: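 Calcein AM-labeled Ramos cells (2.5×10^5/well) added with or without compound to plates coated with CS1 peptide-ovalbumin conjugate in TBS containing 1 mM each MgCl2, CaCl2, MnCl2; 30 min at 37° C. Adherent cells lysed and quantified fluorometrically after washes; IC50 as dose for 50% inhibition, or percent inhibition at 100 μM.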

T1 sequence (P13612 34-1032): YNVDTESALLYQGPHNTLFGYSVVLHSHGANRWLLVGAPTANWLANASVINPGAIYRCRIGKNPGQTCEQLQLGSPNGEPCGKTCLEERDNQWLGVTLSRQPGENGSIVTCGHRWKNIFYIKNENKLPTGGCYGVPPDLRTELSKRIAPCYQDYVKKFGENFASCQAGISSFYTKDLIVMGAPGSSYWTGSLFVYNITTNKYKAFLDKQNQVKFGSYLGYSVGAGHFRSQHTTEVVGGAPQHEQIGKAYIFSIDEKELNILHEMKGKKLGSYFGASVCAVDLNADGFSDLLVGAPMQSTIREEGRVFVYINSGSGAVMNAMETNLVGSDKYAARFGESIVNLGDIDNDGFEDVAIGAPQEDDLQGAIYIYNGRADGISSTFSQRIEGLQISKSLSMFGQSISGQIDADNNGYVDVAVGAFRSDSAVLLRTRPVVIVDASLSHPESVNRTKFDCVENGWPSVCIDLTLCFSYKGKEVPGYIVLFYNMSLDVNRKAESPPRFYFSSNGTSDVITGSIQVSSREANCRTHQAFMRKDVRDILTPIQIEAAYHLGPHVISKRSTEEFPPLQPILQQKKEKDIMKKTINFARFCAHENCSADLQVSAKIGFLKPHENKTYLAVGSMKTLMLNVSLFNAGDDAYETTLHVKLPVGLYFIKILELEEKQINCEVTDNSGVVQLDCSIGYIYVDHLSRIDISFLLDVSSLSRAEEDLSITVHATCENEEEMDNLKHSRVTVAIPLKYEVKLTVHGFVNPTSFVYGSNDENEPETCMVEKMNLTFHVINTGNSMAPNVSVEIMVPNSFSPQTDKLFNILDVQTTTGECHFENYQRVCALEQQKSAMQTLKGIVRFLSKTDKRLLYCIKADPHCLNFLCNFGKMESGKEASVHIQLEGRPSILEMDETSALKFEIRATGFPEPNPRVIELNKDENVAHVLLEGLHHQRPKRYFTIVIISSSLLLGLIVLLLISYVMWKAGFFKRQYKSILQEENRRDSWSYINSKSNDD
T1 sequence (P05556 21-798): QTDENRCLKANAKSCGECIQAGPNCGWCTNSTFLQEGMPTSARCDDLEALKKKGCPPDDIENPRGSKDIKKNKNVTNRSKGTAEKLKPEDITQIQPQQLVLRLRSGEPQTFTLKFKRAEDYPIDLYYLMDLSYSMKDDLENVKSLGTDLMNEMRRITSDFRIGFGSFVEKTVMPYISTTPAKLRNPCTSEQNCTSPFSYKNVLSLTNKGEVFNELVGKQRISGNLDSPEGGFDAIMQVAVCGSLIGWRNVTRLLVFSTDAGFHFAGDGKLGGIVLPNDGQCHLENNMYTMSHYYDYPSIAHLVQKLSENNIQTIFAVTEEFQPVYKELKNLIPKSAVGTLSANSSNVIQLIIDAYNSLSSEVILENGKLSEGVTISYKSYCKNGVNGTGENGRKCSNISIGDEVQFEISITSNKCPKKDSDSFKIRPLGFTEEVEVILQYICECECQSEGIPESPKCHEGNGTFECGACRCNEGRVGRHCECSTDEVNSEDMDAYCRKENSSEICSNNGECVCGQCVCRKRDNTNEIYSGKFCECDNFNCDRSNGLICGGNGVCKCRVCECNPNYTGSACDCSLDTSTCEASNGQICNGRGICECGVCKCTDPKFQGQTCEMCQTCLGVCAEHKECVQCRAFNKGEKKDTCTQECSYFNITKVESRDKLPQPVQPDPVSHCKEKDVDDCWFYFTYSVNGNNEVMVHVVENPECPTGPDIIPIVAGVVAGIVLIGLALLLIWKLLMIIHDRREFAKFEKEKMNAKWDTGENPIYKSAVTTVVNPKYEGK

Row | SMILES | IC50 [nM]
1 | CCCCC(C(=O)N[C@@H](CC(=O)O)c1cccc(CC(C)C)c1)n1cc(C)cc(Cc2ccccc2)c1=O (stereo partly drawn) [(3S)-3-({2-[5-methyl-2-oxo-3-(phenylmethyl)-1(2H)-pyridinyl]hexanoyl}amino)-3-[3-(2-methylpropyl)phenyl]propanoic acid] | 10
2 | CCCCC(C(=O)N[C@@H](CC(=O)O)c1ccccc1)n1cc(C)cc(Cc2cccc3ccccc23)c1=O (stereo partly drawn) [(3S)-3-({2-[5-methyl-3-(1-naphthalenylmethyl)-2-oxo-1(2H)-pyridinyl]hexanoyl}amino)-3-phenylpropanoic acid] | 350
3 | CCCCC(C(=O)N[C@@H](CC(=O)O)c1ccc(C)cc1)n1cc(C)cc(Cc2ccc3ccccc3c2)c1=O (stereo partly drawn) [(3S)-3-({2-[5-methyl-3-(2-naphthalenylmethyl)-2-oxo-1(2H)-pyridinyl]hexanoyl}amino)-3-(4-methylphenyl)propanoic acid] | 400
4 | CCCCC(C(=O)N[C@@H](CC(=O)O)c1ccccc1)n1cc(C)cc(Cc2ccc3ccccc3c2)c1=O (stereo partly drawn) [(3S)-3-({2-[5-methyl-3-(2-naphthalenylmethyl)-2-oxo-1(2H)-pyridinyl]hexanoyl}amino)-3-phenylpropanoic acid] | 30
5 | CCCCC(C(=O)N[C@@H](CC(=O)O)c1ccccc1)n1cc(C)cc(Cc2ccccc2C)c1=O (stereo partly drawn) [(3S)-3-({2-[5-methyl-3-[(2-methylphenyl)methyl]-2-oxo-1(2H)-pyridinyl]hexanoyl}amino)-3-phenylpropanoic acid] | 25
6 | CCCCC(C(=O)N[C@@H](CC(=O)O)c1cccc(-c2ccccc2)c1)n1cc(C)cc(Cc2ccccc2)c1=O (stereo partly drawn) [(3S)-3-[1,1′-biphenyl]-3-yl-3-({2-[5-methyl-2-oxo-3-(phenylmethyl)-1(2H)-pyridinyl]hexanoyl}amino)propanoic acid] | 250
7 | CCCCC(C(=O)N[C@@H](CC(=O)O)c1cccc(N(CC)CC)c1)n1cc(C)cc(Cc2ccccc2)c1=O (stereo partly drawn) [(3S)-3-[3-(diethylamino)phenyl]-3-({2-[5-methyl-2-oxo-3-{phenylmethyl)-1(2H)-pyridinyl]hexanoyl}amino)propanoic acid] | 10
8 | CCCCC(C(=O)N[C@@H](CC(=O)O)c1cccc(C(F)F)c1)n1cc(C)cc(Cc2ccccc2)c1=O (stereo partly drawn) [(3S)-3-[3-(difluoromethyl)phenyl]-3-({2-[5-methyl-2-oxo-3-(phenylmethyl)-1(2H)-pyridinyl]hexanoyl}amino)propanoic acid] | 20
9 | CCCCC(C(=O)N[C@@H](CC(=O)O)c1ccc(C(C)C)cc1)n1cc(C)cc(Cc2ccccc2)c1=O (stereo partly drawn) [(3S)-3-[4-(1-methylethyl)phenyl]-3-({2-[5-methyl-2-oxo-3-(phenylmethyl)-1(2H)-pyridinyl]hexanoyl}amino)propanoic acid] | 160
10 | Cc1cc(C(C(=O)N[C@@H](CC(=O)O)c2cccc(OC(C)C)c2)c2ccccc2)c(=O)n(Cc2ccccc2)c1 (stereo partly drawn) [(3S)-3-{3-[(1-methylethyl)oxy]phenyl}-3-({2-[5-methyl-2-oxo-1-(phenylmethyl)-1,2-dihydro-3-pyridinyl]-2-phenylacetyl}amino)propanoic acid] | 10
11 | CCCCC(C(=O)N[C@@H](CC(=O)O)c1cccc(OC(C)C)c1)n1cc(C)cc(Cc2cccc3ccccc23)c1=O (stereo partly drawn) [(3S)-3-{3-[(1-methylethyl)oxy]phenyl}-3-({2-[5-methyl-3-(1-naphthalenylmethyl)-2-oxo-1(2H)-pyridinyl]hexanoyl}amino)propanoic acid] | 67
12 | CCCCC(C(=O)N[C@@H](CC(=O)O)c1cccc(OC(C)C)c1)n1cc(C)cc(Cc2ccc3ccccc3c2)c1=O (stereo partly drawn) [(3S)-3-{3-[(1-methylethyl)oxy]phenyl}-3-({2-[5-methyl-3-(2-naphthalenylmethyl)-2-oxo-1(2H)-pyridinyl]hexanoyl}amino)propanoic acid] | 20
13 | CCCCC(C(=O)N[C@@H](CC(=O)O)c1cccc(OC(C)C)c1)n1cc(C)cc(Cc2ccccc2C)c1=O (stereo partly drawn) [(3S)-3-{3-[(1-methylethyl)oxy]phenyl}-3-({2-[5-methyl-3-[(2-methylphenyl)methyl]-2-oxo-1(2H)-pyridinyl]hexanoyl}amino)propanoic acid] | 5
14 | CCCCC(C(=O)N[C@@H](CC(=O)O)c1ccc(C)c(OC(C)C)c1)n1cc(C)cc(Cc2ccccc2)c1=O (stereo partly drawn) [(3S)-3-{4-methyl-3-[(1-methylethyl)oxy]phenyl}-3-({2-[5-methyl-2-oxo-3-(phenylmethyl)-1(2H)-pyridinyl]hexanoyl}amino)propanoic acid] | 15
15 | CCCCC(C(=O)N[C@@H](CC(=O)O)c1ccc(OC)c(C)c1C)n1cccc(Cc2ccccc2)c1=O (stereo partly drawn) [(3S)-3-{[2-(3-benzyl-2-oxopyridin-1(2H)-yl)hexanoyl]amino}-3-(4-methoxy-2,3-dimethylphenyl)propanoic acid] | 300
16 | CCCCC(C(=O)N[C@@H](CC(=O)O)c1cc(C)ccc1C)n1cc(C)cc(Cc2ccccc2)c1=O (stereo partly drawn) [(3S)-3-{[2-(3-benzyl-5-methyl-2-oxopyridin-1(2H)-yl)hexanoyl]amino}-3-(2,5-dimethylphenyl)propanoic acid] | 300
17 | CCCCC(C(=O)N[C@@H](CC(=O)O)c1ccc(C)c(C)c1)n1cc(C)cc(Cc2ccccc2)c1=O (stereo partly drawn) [(3S)-3-{[2-(3-benzyl-5-methyl-2-oxopyridin-1(2H)-yl)hexanoyl]amino}-3-(3,4-dimethylphenyl)propanoic acid] | 130
18 | CCCCC(C(=O)N[C@@H](CC(=O)O)c1cc(F)cc(F)c1)n1cc(C)cc(Cc2ccccc2)c1=O (stereo partly drawn) [(3S)-3-{[2-(3-benzyl-5-methyl-2-oxopyridin-1(2H)-yl)hexanoyl]amino}-3-(3,5-difluorophenyl)propanoic acid] | 25
19 | CCCCC(C(=O)N[C@@H](CC(=O)O)c1cc(C)cc(C)c1)n1cc(C)cc(Cc2ccccc2)c1=O (stereo partly drawn) [(3S)-3-{[2-(3-benzyl-5-methyl-2-oxopyridin-1(2H)-yl)hexanoyl]amino}-3-(3,5-dimethylphenyl)propanoic acid] | 52
20 | CCCCOc1cccc([C@H](CC(=O)O)NC(=O)C(CCCC)n2cc(C)cc(Cc3ccccc3)c2=O)c1 (stereo partly drawn) [(3S)-3-{[2-(3-benzyl-5-methyl-2-oxopyridin-1(2H)-yl)hexanoyl]amino}-3-(3-butoxyphenyl)propanoic acid] | 45
21 | CCCCC(C(=O)N[C@@H](CC(=O)O)c1ccc(OC)c(OCC)c1)n1cc(C)cc(Cc2ccccc2)c1=O (stereo partly drawn) [(3S)-3-{[2-(3-benzyl-5-methyl-2-oxopyridin-1(2H)-yl)hexanoyl]amino}-3-(3-ethoxy-4-methoxyphenyl)propanoic acid] | 4

Other lines, results leading:

Row | IC50 [nM] | SMILES
22 | 35 | CCCCC(C(=O)N[C@@H](CC(=O)O)c1cccc(OCC)c1)n1cc(C)cc(Cc2ccccc2)c1=O (stereo partly drawn) [(3S)-3-{[2-(3-benzyl-5-methyl-2-oxopyridin-1(2H)-yl)hexanoyl]amino}-3-(3-ethoxyphenyl)propanoic acid]
23 | 4 | CCCCC(C(=O)N[C@@H](CC(=O)O)c1cccc(OC(C)C)c1)n1cc(C)cc(Cc2ccccc2)c1=O (stereo partly drawn) [(3S)-3-{[2-(3-benzyl-5-methyl-2-oxopyridin-1(2H)-yl)hexanoyl]amino}-3-(3-isopropoxyphenyl)propanoic acid]
24 | 10 | CCCCC(C(=O)N[C@@H](CC(=O)O)c1cccc(OCCC)c1)n1cc(C)cc(Cc2ccccc2)c1=O (stereo partly drawn) [(3S)-3-{[2-(3-benzyl-5-methyl-2-oxopyridin-1(2H)-yl)hexanoyl]amino}-3-(3-propoxyphenyl)propanoic acid]
25 | 25 | CCCCC(C(=O)N[C@@H](CC(=O)O)c1ccc(Cl)c(OC(C)C)c1)n1cc(C)cc(Cc2ccccc2)c1=O (stereo partly drawn) [(3S)-3-{[2-(3-benzyl-5-methyl-2-oxopyridin-1(2H)-yl)hexanoyl]amino}-3-(4-chloro-3-isopropoxyphenyl)propanoic acid]
26 | 283 | CCCCC(C(=O)N[C@@H](CC(=O)O)c1cc(C)c(OC)cc1C)n1cc(C)cc(Cc2ccccc2)c1=O (stereo partly drawn) [(3S)-3-{[2-(3-benzyl-5-methyl-2-oxopyridin-1(2H)-yl)hexanoyl]amino}-3-(4-methoxy-2,5-dimethylphenyl)propanoic acid]
27 | 140 | CCCCC(C(=O)N[C@@H](CC(=O)O)c1cc(C)c(OC)c(C)c1)n1cc(C)cc(Cc2ccccc2)c1=O (stereo partly drawn) [(3S)-3-{[2-(3-benzyl-5-methyl-2-oxopyridin-1(2H)-yl)hexanoyl]amino}-3-(4-methoxy-3,5-dimethylphenyl)propanoic acid]
28 | 9 | CCCCC(C(=O)N[C@@H](CC(=O)O)c1ccc(OC)c(C)c1)n1cc(C)cc(Cc2ccccc2)c1=O (stereo partly drawn) [(3S)-3-{[2-(3-benzyl-5-methyl-2-oxopyridin-1(2H)-yl)hexanoyl]amino}-3-(4-methoxy-3-methylphenyl)propanoic acid]
29 | 300 | CCCCC(C(=O)N[C@@H](CC(=O)O)c1ccc(-c2ccc(OC)cc2)cc1)n1cc(C)cc(Cc2ccccc2)c1=O (stereo partly drawn) [(3S)-3-{[2-(3-benzyl-5-methyl-2-oxopyridin-1(2H)-yl)hexanoyl]amino}-3-(4′-methoxy-1,1′-biphenyl-4-yl)propanoic acid]
30 | 250 | CCCCC(C(=O)N[C@@H](CC(=O)O)c1ccc(-c2ccc(C)cc2)cc1)n1cc(C)cc(Cc2ccccc2)c1=O (stereo partly drawn) [(3S)-3-{[2-(3-benzyl-5-methyl-2-oxopyridin-1(2H)-yl)hexanoyl]amino}-3-(4′-methyl-1,1′-biphenyl-4-yl)propanoic acid]
31 | 40 | CCCCC(C(=O)N[C@@H](CC(=O)O)c1ccc2cc(OC)ccc2c1)n1cc(C)cc(Cc2ccccc2)c1=O (stereo partly drawn) [(3S)-3-{[2-(3-benzyl-5-methyl-2-oxopyridin-1(2H)-yl)hexanoyl]amino}-3-(6-methoxy-2-naphthyl)propanoic acid]
32 | 40 | CCCCC(C(=O)N[C@@H](CC(=O)O)c1cccc(OC(F)(F)F)c1)n1cc(C)cc(Cc2ccccc2)c1=O (stereo partly drawn) [(3S)-3-{[2-(3-benzyl-5-methyl-2-oxopyridin-1(2H)-yl)hexanoyl]amino}-3-[3-(trifluoromethoxy)phenyl]propanoic acid]
33 | 250 | CCCCC(C(=O)N[C@@H](CC(=O)O)c1cccc(C(F)(F)F)c1)n1cc(C)cc(Cc2ccccc2)c1=O (stereo partly drawn) [(3S)-3-{[2-(3-benzyl-5-methyl-2-oxopyridin-1(2H)-yl)hexanoyl]amino}-3-[3-(trifluoromethyl)phenyl]propanoic acid]
